According to US12357608B2, “Methods and compositions utilizing RRx-001 combination therapy for radioprotection” (priority 2018, dated 2025):
Entries after “also recorded” stand apart in the source; their conditions may differ.

How the values were obtained:
[1] = tested on: male Syrian Golden Hamsters; assay: Oral mucositis induced by acute radiation in hamsters; type: in vivo
Procedure: Fifty-six (56) male Syrian Golden Hamsters were used in the study. Mucositis was induced by administering an acute radiation dose of 40 Gy directed to the left buccal cheek pouch on Day 0 at a rate of 2-2.5 Gy/min. Mucositis was evaluated clinically starting on Day 6 and continuing on alternate days until Day 28. Hamsters reaching a mucositis severity score of 4 or higher received buprenorphine (0.5 mg/kg) SC twice a day for 48 hours or until score dropped below 4.
Dosing was scheduled as follows: for animals in Groups 1-4, animals were dosed with RRx-001 (1, 3, or 10 mg/kg) or vehicle (1:2 DMA:PEG400 vol:vol ratio) once a day (QD) on Days −4, −1, 1, 4, 7, 11, 14, 18, 21, and 25 via intraperitoneal (IP) administration; animals in Groups 5-7 were dosed QD with RRx-001 (1, 3, or 10 mg/kg) on Days −4, −1, 1, 8, 15, and 22.
The significance of differences observed between the control and treatment group was evaluated by comparing the days with mucositis scores≥3 and <3 between groups using chi-square analysis. […] The percentage of animal days with a score of ≥3 in the Vehicle Group was 57.29%. […] There were numerous days where animals dosed with RRx-001 had percent ulceration days that were lower (which can be interpreted as ameliorative of disease severity) in comparison to vehicle-dosed animals.
An analysis of the severity of mucositis was performed using the Mann-Whitney rank sum analysis to compare the visual mucositis scores for the treatment group to the Vehicle control group on each day of evaluation. In this analysis, 2 days of significant reduction in the mucositis score are generally required before it is regarded as meaningful.
This evaluation was intended to clarify which days of treatment had its maximal impact on the course of ulcerative mucositis. There were numerous days where animals dosed with RRx-001 had percent ulceration days that were lower (which can be interpreted as ameliorative of disease severity) in comparison to vehicle-dosed animals.

bone marrow = assay: Histopathological analysis of bone marrow sternebrae (cellularity grade, megakaryocytes) after sublethal TBI or sham irradiation; type: in vivo, mice
Procedure: To determine the pathophysiological effects of RRx-001 on hematopoietic protection in mice, CD2F1 male mice were treated with 10 mg/kg RRx-001 or the vehicle control 24 hours prior to a sublethal dose of TBI (7 Gy at 0.6 Gy/min using High-level Cobalt-60) or sham irradiation (day 0) according to the table below.
CD2F1 male mice (n=3/group) were divided into 4 experimental groups: 1) irradiation+vehicle, 2) irradiation+RRx-001, 3) sham-irradiation+vehicle and 4) sham-irradiation+RRx-001. Either 10 mg/kg RRx-001 or the vehicle control were IP injected 24 hours prior to either irradiation or sham-irradiation (day 0). On days 2, 7, 14, 21, and 28 post-irradiation (day 0) mice were humanely euthanized. Blood, bone marrow, and sternebrae were then collected. This experiment was performed in duplicate for a total of n=6 mice/group/time point.
Sternebrae from euthanized mice (n=6/group/time point) were collected on days 2, 7, 14, 21 and 28 post-irradiation. Sternebrae were fixed in 10% zinc-buffered formalin for at least 24 hours and up to 7 days. Fixed sternebrae were decalcified for 3 hr in 12-18% sodium EDTA (pH 7.4-7.5) and specimens dehydrated using graded ethanol concentrations and embedded in paraffin. Longitudinal 4 μm sections were stained with regular hematoxylin and eosin. Two board-certified pathologist conducted histopathological evaluation of the samples. One of the pathologist scored all the samples blindly. Bone marrow was evaluated in situ within sternebrae and graded (Grade 1: <10%; Grade 2: 11-30%; Grade 3: 31-60%; Grade 4: 61-89%; Grade 5: >90%) for total cellularity. Megakaryocytes were also quantified based on the average per 10 high power fields (HPF) at 400× magnification using a BX43 or BX53 microscope (Olympus, Minneapolis, MN). Images were captured with an Olympus DP22 camera and imported into Olympus Cellsens Standard software for review.
Blood parameters were compared between treatment groups using an analysis of variance (ANOVA). The Wilcoxon test was also used for sensitivity and to potentially address data departures from normality. A longitudinal mixed model repeated measures was also implemented to provide a more complete data analysis of the sham-irradiated treatment groups' difference in overall time profile mean based on the blood parameters. Bone marrow data (megakaryocytes and grade) statistical analysis was carried out using a parametric test consisting of a general linear model analysis of variance (ANOVA with factors consisting of treatment group and pathologist) and the Kruskal-Wallis nonparametric test. The statistical data analysis was carried out using R software (Version 3.4.3, 2016) and the graphs made using GraphPad Prism version 7.03 (GraphPad Software, La Jolla, CA).
To determine the effect of RRx-001 on bone marrow, a histopathological analysis of bone marrow sternebrae was performed and the cellularity, as reported by grade (grade 1: <10%; grade 2: 11-30%; grade 3: 31-60%; grade 4: 61-89%; grade 5: ≥90% cellularity), and megakaryocyte numbers (averaged per 10 high-powered fields; HPF) were ascertained by two pathologists, one of which scored all the samples blindly (TAS, WEC).

O=C(CBr)N1CC([N+](=O)[O-])([N+](=O)[O-])C1 [RRx-001, 2-bromo-1-(3,3-dinitroazetidin-1-yl)ethan-1-one]
daily mucositis scores compared to the Vehicle control group ([1]; 1 mg/kg IP): multiple days of significant improvement in mucositis scores
daily mucositis scores compared to the Vehicle control group ([1]; 10 mg/kg IP): multiple days of significant improvement in mucositis scores
mean daily mucositis scores ([1]; 10 mg/kg IP, Group 2, dosed Days −4, −1, 1, 40 Gy): modest but significant enhancement of disease healing
body weight by study termination ([1]; 10 mg/kg IP, Groups 2 and 5, after cessation of dosing): rebounded back to be in line with other groups
tolerability of the highest dose ([1]; 10 mg/kg IP, Groups 2 and 5, dosing discontinued after Day 1): adverse side effects
body weight ([1]; 10 mg/kg IP, Groups 2 and 5, during study): lower weights than all other groups
percent ulceration ([1]; 10 mg/kg, Groups 2 and 5, only dosed on Days −4, −1, and 1): best response in decreasing percent ulceration
percent days of ulceration, twice weekly dosing vs one time per week ([1]; 3 and 1 mg/kg, 1 mg/kg, Group 4 vs Group 7): more beneficial effects on percent days of ulceration
percentage of days with a mucositis score of ≥3 in comparison to the Vehicle Group ([1]; Group 2, 10 mg/kg on Days −4, −1, 1, p<0.01): statistically lower
body weight ([1]; all groups except Groups 2 and 5 (1 and 3 mg/kg IP)): steadily gained weight
mean daily mucositis scores ([1]; all other treatment groups (Groups 3-7)): tracked fairly close to each other, and with Vehicle dosed controls
percent ulceration days in comparison to vehicle-dosed animals ([1]; numerous days): lower
bone marrow cellularity compared to the vehicle control (bone marrow; 7 Gy TBI, 10 mg/kg IP 24 h before, day 7): slight increase in cellularity
hematopoietic recovery by grade of bone marrow cellularity compared with control (bone marrow; 7 Gy TBI, 10 mg/kg IP 24 h before, day 14, 10 mg/kg): significantly accelerated hematopoietic recovery; also recorded: significant increase in bone marrow cellularity
number of megakaryocytes (bone marrow; 7 Gy TBI, 10 mg/kg, between days 7-28): steady increase
number of megakaryocytes (bone marrow; 7 Gy TBI, 10 mg/kg, day 2): reduced
number of megakaryocytes (bone marrow; 7 Gy TBI, 10 mg/kg, day 7): severely depleted
bone marrow cellularity grade (bone marrow; after 7 Gy TBI, 10 mg/kg IP 24 h before): 1 (grade 1: <10%)
